The assay deals with KLHDC2 (Homo sapiens (Human), UniProt Q9Y2U9). Kind of assay: AlphaScreen competition assay for ligand binding to KLHDC2 (GST-KLHDC2 vs biotinylated 12 aa SelK degron peptide). The settings on record: formula (II) compounds; 0.12 nM GST-KLHDC2, 1.7 nM biotinylated 12 aa SelK peptide; triplicate; read-out: KLHDC2 binding activities IC50. The text has this: The following is a description of an assay for evaluating ligand binding to KLHDC2.
Amplified Luminescence Proximity Homogenous Assay (AlphaScreen) was used to monitor protein-protein interaction of two tagged components that are immobilized on beads. One component was GST-KLHDC2 (E3) and the other one was biotinylated-SelK peptide with a length of 12 amino acids (Substrate peptide). When the two components bind, they bring the Alpha beads in close proximity to each other that results in a luminescent signal.
AlphaScreen assays for determining and measuring protein-protein interactions were performed using EnSpire reader (PerkinElmer). GST-tagged KLHDC2 was attached to anti-GST AlphaScreen acceptor beads. Synthetic biotinylated 12 aa SelK degron peptide (Bio-Synthesis, Inc.) was immobilized to streptavidin-coated AlphaScreen donor beads. The donor and acceptor beads were brought into proximity by the interactions between the SelK peptide and KLHDC2. Excitation of the donor beads by a laser beam of 680 nm promotes the formation of singlet oxygen. When an acceptor bead is in close proximity, the singlet oxygen reacts with thioxene derivatives in the acceptor beads and causes the emission of 520-620 nm photons, which are detected as the binding signal. If the beads are not in close proximity to each other, the oxygen will return to its ground state and the acceptor beads will not emit light. Competition assays were performed in the presence of representative binding compounds, which were titrated at various concentrations.
The experiments were conducted with 0.12 nM of GST-KLHDC2 and 1.7 nM biotinylated 12 aa SelK peptide in the presence of 5 μg/ml donor and acceptor beads in a buffer of 25 mM HEPES, pH 7.5, 100 mM NaCl, 1 mM TCEP, 0.1% Tween-20, and 0.05 mg/ml Bovine Serum Albumin. The concentrations of the compounds used in competition assays ranged from 0.1 nM to 25 mM. The experiments were done in triplicate. IC50 values were determined using non-linear curve fitting of the dose response curves generated with Prism 4 (GraphPad).
Background: Bead proximity is the source of the signal in Alpha formats.

Chain of KLHDC2 (Q9Y2U9 whole entry): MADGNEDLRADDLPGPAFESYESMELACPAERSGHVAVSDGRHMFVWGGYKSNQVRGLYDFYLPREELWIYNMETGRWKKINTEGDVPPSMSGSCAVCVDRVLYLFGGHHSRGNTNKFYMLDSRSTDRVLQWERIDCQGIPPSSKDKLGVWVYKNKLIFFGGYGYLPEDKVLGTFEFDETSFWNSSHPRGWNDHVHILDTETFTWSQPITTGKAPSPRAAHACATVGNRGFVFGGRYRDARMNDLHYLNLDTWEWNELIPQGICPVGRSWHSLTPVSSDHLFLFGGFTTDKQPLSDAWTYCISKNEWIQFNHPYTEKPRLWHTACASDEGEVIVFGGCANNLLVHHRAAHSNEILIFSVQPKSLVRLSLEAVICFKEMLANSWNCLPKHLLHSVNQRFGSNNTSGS

Consider `CC(=O)N1CCC[C@@H]1C(=O)N1CCN(C)C2(CCC(=O)N(CC(=O)O)CC2)C1` (stereo partly drawn) [AC1072, 2-(4-(acetyl-D-prolyl)-1-methyl-10-oxo-1,4,9-triazaspiro[5.6]dodecan-9-yl)acetic acid], for which the IC50 (commonly the concentration at which inhibition is half-maximal) was determined as 12.5 µM.

These data come from patent US20240425519A1, “NOVEL SPIROCYCLIC COMPOUNDS AS KLHDC2 LIGANDS” (University of Washington, priority 2021, published 2024).
